Assay results taken from patent US7132420B2, “Aspartic protease inhibitors” (The United States of America as represented by the …, priority 1999, dated 2006).
Read-outs that look alike come from different tables or passages of the source.

How the values were obtained:
HIV-1 protease = HIV-1 protease (Human immunodeficiency virus type 1 group M subtype B, UniProt P04585); test: HIV protease assay (Ki); assay type: biochemical
Text: (§1) This example illustrates the HIV-1 protease inhibition activity (Ki), HIV-1 antiviral data (EC50), and the toxicity against normal cells (IC50), for particular compounds of formula (I). The HIV protease assay was done according to the protocol described in Kageyama et al, Antimicrob. Agents Chemother., 37, 272 (1993). The HIV antiviral assay was done according to the protocol described in Weislow et al., J. National Cancer Inst. 81, 577 (1989).
(§2) The HIV protease assay was done according to the protocol described in Example 35. The plasmepsin II assay was done according to the protocol used in Silva et al., Proc. Nat. Acad. Sci. USA, 93, pp. 10034–10039, September 1996 (Biochemstry). The cathepsin D assay was done according to the protocol described in Gulnik et al., FEBS Letters, 413, 379–384 (1997). The compounds illustrated in Table 2 are of the general formula (II), as described in Example 35.

[1] = target: 84V mutant HIV-1 protease (Human immunodeficiency virus type 1 group M subtype B, UniProt P04585, I572V); test: HIV protease assay, 84V mutant (Ki); assay type: biochemical
Text: as §1

[2] = target: 32I mutant HIV-1 protease (Human immunodeficiency virus type 1 group M subtype B, UniProt P04585, V520I); test: HIV protease assay, 32I mutant (Ki); assay type: biochemical; conditions: Table 1; read-out: 321 Ki
Text: as §1

[3] = target: 82F/84V mutant HIV-1 protease (Human immunodeficiency virus type 1 group M subtype B, UniProt P04585, I572V/V570F); assay type: biochemical
Text: as §1

HIV-1 = test: HIV antiviral assay (EC50); assay type: cell-based
Text: The HIV protease assay was done according to the protocol described in Kageyama et al, Antimicrob. Agents Chemother., 37, 272 (1993). The HIV antiviral assay was done according to the protocol described in Weislow et al., J. National Cancer Inst. 81, 577 (1989).

normal cells = test: toxicity against normal cells (IC50); assay type: cell-based
Text: as §1

cathepsin D = cathepsin D (Homo sapiens, UniProt P07339); test: cathepsin D assay (Ki); assay type: biochemical; conditions: for Ki: Table 2, read-out: Cath D Ki
Sequence of cathepsin D (P07339 65-412): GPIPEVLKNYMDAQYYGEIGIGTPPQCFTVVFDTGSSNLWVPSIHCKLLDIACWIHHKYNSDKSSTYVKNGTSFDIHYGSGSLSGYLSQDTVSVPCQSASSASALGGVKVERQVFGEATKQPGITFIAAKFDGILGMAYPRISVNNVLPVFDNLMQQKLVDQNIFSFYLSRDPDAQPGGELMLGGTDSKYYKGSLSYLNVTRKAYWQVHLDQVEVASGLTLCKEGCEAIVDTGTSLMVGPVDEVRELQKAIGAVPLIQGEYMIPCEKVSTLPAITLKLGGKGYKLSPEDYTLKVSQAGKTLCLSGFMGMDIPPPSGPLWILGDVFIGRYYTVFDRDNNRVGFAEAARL
Text: as §2

plasmepsin II = plasmepsin II (Plasmodium falciparum, UniProt P46925); test: biochemical; assay type: biochemical; conditions: for Ki: Table 2, read-out: Pls II Ki
Sequence of plasmepsin II (P46925 125-453): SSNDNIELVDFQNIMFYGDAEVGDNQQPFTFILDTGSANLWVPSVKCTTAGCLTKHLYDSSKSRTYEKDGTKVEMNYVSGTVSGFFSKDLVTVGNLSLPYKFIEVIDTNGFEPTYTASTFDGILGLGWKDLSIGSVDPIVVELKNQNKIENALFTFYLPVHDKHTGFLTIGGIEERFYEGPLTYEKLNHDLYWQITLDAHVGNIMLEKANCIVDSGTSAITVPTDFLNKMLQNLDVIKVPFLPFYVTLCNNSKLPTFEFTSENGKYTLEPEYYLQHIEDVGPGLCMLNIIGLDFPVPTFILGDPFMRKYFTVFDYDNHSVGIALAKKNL
Text: as §2

Rat IV pharmacokinetics = assay type: in vivo, rats; conditions: IV about 5 mg/kg
Method: (§3) This example illustrates the oral bioavailability of various compounds of the present invention. […] Drug concentrations were measured by centrifuging plasma samples, extracting the supernatants with tert-butyl methyl ether, and analyzing the extracts by HPLC. Oral bioavailability (% F) was calculated on the basis of the ratio of the amount of drug absorbed systemically from oral administration (AUC p.o.) relative to the amount of systemic drug obtained from intravenous administration (AUC iv).

[4] = Rat P.O. pharmacokinetics and oral bioavailability; assay type: in vivo, rats; conditions: for Rat P.O. % F (%): AUC p.o. relative to AUC iv; for Cmax / Rat P.O. tmax: P.O. about 37 mg/kg, PEG 300 vehicle; for Cmax when administered orally, in words: oral
Method: as §3

[5] = IV-PO crossover oral bioavailability studies; assay type: in vivo; conditions: two Sprague-Dawley rats; IV 7 and 3 mg/kg (DMSO), oral 22 and 50 mg/kg (PEG300)
Method: Compound (19) was tested in IV-PO crossover studies in two Sprague-Dawley rats. For the IV portion of the studies, compound (19) was given at doses of 7 and 3 mg/kg, as a short infusion (30–60 seconds) via a jugular vein catheter using a vehicle of DMSO and a dose volume of 1 ml/kg. Heparinized blood samples were collected at close intervals through 3 hours, the plasma was separated, and plasma concentrations of compound (19) were determined by HPLC. One to two weeks later, the same rats were given doses of 22 and 50 mg/kg by gastric intubation. The vehicle was PEG300 and the dose volume was 10 ml/kg. Blood samples were collected at regular intervals through 24 hours, and analyzed as above. The oral bioavailability in both of these studies was 100%. Based on the excellent oral bioavailability of compound (19), it is expected that compound (19) will be an effective inhibitor of systemic aspartic protease when administered orally. Other compounds of the present invention also are expected to have-good oral bioavailability.

[6] = comparison of Table 2 Ki values

Row | Compound | Ki (HIV-1 protease; Table 1, read-out: HIV-1 Ki) [nM] | Ki (HIV-1 protease; Table 2, read-out: HIV-1 Ki) [nM] | Ki ([3]; Table 1) [nM] | EC50 (HIV-1; Table 1) [nM] | EC50 (HIV-1; Table 2) [nM] | IC50 (normal cells; Table 2) [nM] | Ki (plasmepsin II) [nM] | IC50 (normal cells; Table 1) [nM] | further results
1 | Cc1cccc(C)c1OCC(=O)N[C@@H](Cc1ccccc1)[C@@H](O)C[C@H](CC(C)C)NC(=O)[C@H](C(C)C)N1CCCNC1=O [(16)] | 0.007 | 0.007 | 0.137 | 23 | 23 | > 100000 | 357 |  | inhibitory activity against HIV-1 protease, in words (HIV-1 protease): excellent potency; Ki (HIV-1 protease; Table 3, read-out: HIV-1 Ki): 0.008 nM; potency relative to compound (24) against HIV-1 protease (HIV-1 protease; [6]): about ten-fold more potent than compound (24); Ki ([1]; Table 1): 0.091 nM; Ki [2]: 0.031 nM; EC50 (HIV-1; Table 3): 23 nM; Ki (cathepsin D): 3300 nM; potency relative to compound (24) against plasmepsin II (plasmepsin II; [6]): about ten-fold more potent than compound (24); Rat IV CL (Rat IV pharmacokinetics): 9.8 mL/min/kg; Rat IV t1/2 (Rat IV pharmacokinetics): 27 min; Rat P.O. % F (%) [4]: 1%; Cmax [4]: 269 nM; Rat P.O. tmax [4]: 10 to 15 min
2 | CC(C)C[C@@H](C[C@H](O)[C@H](Cc1ccccc1)NC(=O)c1ccccc1NC(=O)OCc1ccccn1)NC(=O)c1ccccc1NC(=O)OCc1ccccn1 [(21)] | 0.14 |  |  | 127 |  |  |  | > 20000 | Ki ([1]; Table 1, in nM): 2.7 nM
3 | CC(C)[C@H](NC(=O)OCc1ccccn1)C(=O)N[C@@H](Cc1ccccc1)C[C@H](O)[C@H](Cc1ccccc1)NC(=O)[C@@H](NC(=O)OCc1ccccn1)C(C)C [(22), reference compound] | 0.015 |  | 0.271 |  |  |  |  |  | Ki ([1]; Table 1): 0.21 nM
4 | Cc1cccc(C)c1OCC(=O)N[C@@H](Cc1ccccc1)[C@@H](O)C[C@H](CC(C)C)NC(=O)O[C@H]1CCOC1 [(26)] | 0.06 | 0.06 |  | 700 | 700 | > 100000 | 55 |  | Ki ([3]; Table 1, in nM): 2.7 nM; Ki (cathepsin D): 3.5 nM
5 | Cc1cccc(C)c1OCC(=O)N[C@@H](Cc1ccccc1)[C@@H](O)C[C@H](CC(C)C)NC(=O)NC(C)(C)C [(28), (2S,3S,5S)-5-[N-[[N′-(tert-butyl)amino]carbonyl]amino]-2-[N-[2-(2,6-dimethylphenoxy)acetyl]amino]-3-hydroxy-7-methyl-1-phenyloctane] | 0.1 | 0.1 |  | 2000 | 2000 | > 100000 | 107 |  | inhibitory activity against HIV-1 protease, in words (HIV-1 protease): generally potent; inhibitory activity against cathepsin D, in words (cathepsin D): generally potent; inhibitory activity against plasmepsin II, in words (plasmepsin II): generally potent
6 | Cc1cccc(C)c1OCC(=O)N[C@@H](Cc1ccccc1)[C@@H](O)C[C@H](CC(C)C)NC(=O)[C@@H](NC(=O)OCc1ccccn1)C(C)C [(30), (2S,3S,5S)-2-[N-[2-(2,6-dimethylphenoxy)acetyl]amino]-5-[N-[N′-(pyridine-2-methoxycarbonyl)valinyl]amino]-3-hydroxy-7-methyl-1-phenyloctane] | 0.017 | 0.017 | 0.41 | 83 | 83 | > 100000 | 2350 | > 100000 | Ki (cathepsin D): 3300 nM
7 | Cc1cccc(C)c1OCC(=O)N[C@@H](Cc1ccccc1)[C@@H](O)C[C@H](CC(C)C)NC(=O)c1ccc(N)cc1 [(31), (2S,3S,5S)-5-[N-(4-aminobenzoyl)amino]-2-[N-[2-(2,6-dimethylphenoxy)acetyl]amino]-3-hydroxy-7-methyl-1-phenyloctane] |  |  |  |  |  | > 100000 | 30 | > 100000 | Ki (HIV-1 protease): 1.2 nM; inhibitory activity against HIV-1 protease, in words (HIV-1 protease): generally potent; EC50 (HIV-1; Human immunodeficiency virus 1, Table 1): 2000 nM; inhibitory activity against cathepsin D, in words (cathepsin D): generally potent; inhibitory activity against plasmepsin II, in words (plasmepsin II): generally potent
8 | Cc1cccc(C)c1OCC(=O)N[C@@H](Cc1ccccc1)[C@@H](O)C[C@H](CC(C)C)NC(=O)c1cccc(N)c1 [(32)] | 0.331 | 0.33 |  | 2000 | 2000 | > 100000 | 18 | > 100000 | inhibitory activity against HIV-1 protease, in words (HIV-1 protease): generally potent; inhibitory activity against cathepsin D, in words (cathepsin D): generally potent; Ki (cathepsin D): 7.4 nM; inhibitory activity against plasmepsin II, in words (plasmepsin II): generally potent
9 | CC(C)C[C@@H](C[C@H](O)[C@H](Cc1ccccc1)NC(=O)O[C@H]1CCOC1)NC(=O)[C@H](C(C)C)N1CCCNC1=O [(35), (2S,3S,5S)-2-[N-(3S-terahydrofuranyloxycarbonyl]amino]-5-[N-[[3-methyl-2S-(2-oxo-tetrahydropyrimidin-1-yl)]butyryl]amino]-3-hydroxy-7-methyl-1-phenyloctane] | 0.094 ± 0.024 |  |  | 700 |  |  |  | > 100000 | Ki ([3]; Table 1, in nM): 3.2 nM
10 | Cc1ccccc1C(=O)N[C@@H](Cc1ccccc1)[C@@H](O)C[C@H](CC(C)C)NC(=O)OC(C)(C)C [(38)] |  |  |  |  |  |  |  |  | Ki (HIV-1 protease; Table 1, in nM, read-out: HIV-1 Ki): 2.1 nM; Ki ([1]; Table 1, in nM): 12 nM
11 | Cc1cccc(C)c1OCC(=O)N[C@@H](CC(C)C)C[C@H](O)[C@H](Cc1ccccc1)NC(=O)[C@H](C(C)C)N1CCCNC1=O [(43)] | 0.176 |  |  | 540 |  |  |  | > 100000 | Ki (HIV-1 protease; Table 3, read-out: HIV-1 Ki): 0.176 nM; EC50 (HIV-1; Table 3): 540 nM; Rat IV CL (Rat IV pharmacokinetics): 36.6 mL/min/kg; Rat IV t1/2 (Rat IV pharmacokinetics): 28 min; Cmax [4]: 2100 nM; Rat P.O. tmax [4]: 120 min; Cmax when administered orally, in words [4]: micromolar
12 | Cc1cccc(C)c1OCC(=O)N[C@@H](Cc1ccccc1)[C@@H](O)C[C@H](CC(C)C)NC(=O)[C@@H](NC(=O)N1CCOCC1)C(C)C [(45), (2S,3S,5S)-2-[N-[2-(2,6-dimethylphenoxy)acetyl]amino]-5-[N-[[N′-(morpholin-4)carbonyl]valinyl]amino]-3-hydroxy-7-methyl-1-phenyloctane] | 0.05 |  | 0.437 | 170 |  |  |  | > 100000 | Ki (HIV-1 protease; Table 3, read-out: HIV-1 Ki): 0.05 nM; EC50 (HIV-1; Table 3): 170 nM; Rat IV CL (Rat IV pharmacokinetics): 67.5 mL/min/kg; Rat IV t1/2 (Rat IV pharmacokinetics): 20 min; Rat P.O. % F (%) [4]: 29%; Cmax [4]: 573 nM; Rat P.O. tmax [4]: 16 min
13 | CCOC(=O)N[C@H](C(=O)N[C@@H](CC(C)C)C[C@H](O)[C@H](Cc1ccccc1)NC(=O)COc1c(C)cccc1C)C(C)C [(46)] | 0.054 |  | 0.671 | 160 |  |  |  | > 100000 | 
14 | CC(C)C[C@@H](C[C@H](O)[C@H](Cc1ccccc1)NC(=O)OCc1cncs1)NC(=O)[C@H](C(C)C)N1CCCNC1=O [Compound (19), (2S,3S,5S)-5-[N-[[3-methyl-2S-(2-oxo-tetrahydropyrimidin-1-yl)]butyryl]amino]-2-[N-[(thiazol-5-yl-methoxy)carbonyl]amino]-3-hydroxy-7-methyl-1-phenyloctane] | 0.07 ± 0.01 |  |  | 500 |  |  |  | > 100000 | Ki (HIV-1 protease; Table 3, read-out: HIV-1 Ki): 0.07 nM; EC50 (HIV-1; Table 3): 500 nM; Rat IV CL (Rat IV pharmacokinetics): 25 mL/min/kg; Rat IV t1/2 (Rat IV pharmacokinetics): 18 min; Cmax [4]: 24800 nM; Rat P.O. tmax [4]: 120 to 360 min; Cmax when administered orally, in words [4]: micromolar; oral bioavailability [5]: 100%
